In ChEMBL document CHEMBL3526033, “Identification of human liver cytochrome P450 enzymes involved in the metabolism of SCH 530348 (Vorapaxar), a potent oral thrombin protease-activated receptor 1 antagonist” (Drug Metab Dispos, 2011):

Legend:
[1] = biological target: T1, Cytochrome P450 4F2 (Homo sapiens, UniProt P78329); assay: Activity of human recombinant CYP4F2 assessed as enzyme-mediated drug metabolism treated with 25 uM vorapaxar after 120 mins by LC-MS/MS analysis in presence of NADPH; assay type: ADME; conditions: 2 h
T1 sequence (P78329 whole entry): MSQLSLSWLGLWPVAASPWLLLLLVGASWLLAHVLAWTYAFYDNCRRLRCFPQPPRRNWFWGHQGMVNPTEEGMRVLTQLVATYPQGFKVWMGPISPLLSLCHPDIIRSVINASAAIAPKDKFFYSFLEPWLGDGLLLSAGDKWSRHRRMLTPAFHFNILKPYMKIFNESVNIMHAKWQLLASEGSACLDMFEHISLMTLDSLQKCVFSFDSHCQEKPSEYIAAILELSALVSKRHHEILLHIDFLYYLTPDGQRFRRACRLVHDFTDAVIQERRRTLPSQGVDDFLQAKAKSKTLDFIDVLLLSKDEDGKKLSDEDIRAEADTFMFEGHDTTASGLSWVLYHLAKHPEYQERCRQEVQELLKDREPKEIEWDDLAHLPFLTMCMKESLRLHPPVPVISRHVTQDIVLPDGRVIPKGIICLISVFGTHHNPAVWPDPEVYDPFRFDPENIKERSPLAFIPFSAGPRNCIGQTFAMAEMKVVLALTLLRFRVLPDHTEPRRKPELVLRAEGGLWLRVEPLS

[2] = biological target: Cytochrome P450 2D6 (Homo sapiens, UniProt P10635); assay: Activity of human recombinant CYP2D6 assessed as enzyme-mediated drug metabolism treated with 25 uM vorapaxar after 120 mins by LC-MS/MS analysis in presence of NADPH; assay type: ADME; conditions: 2 h
Sequence of Cytochrome P450 2D6 (P10635 whole entry): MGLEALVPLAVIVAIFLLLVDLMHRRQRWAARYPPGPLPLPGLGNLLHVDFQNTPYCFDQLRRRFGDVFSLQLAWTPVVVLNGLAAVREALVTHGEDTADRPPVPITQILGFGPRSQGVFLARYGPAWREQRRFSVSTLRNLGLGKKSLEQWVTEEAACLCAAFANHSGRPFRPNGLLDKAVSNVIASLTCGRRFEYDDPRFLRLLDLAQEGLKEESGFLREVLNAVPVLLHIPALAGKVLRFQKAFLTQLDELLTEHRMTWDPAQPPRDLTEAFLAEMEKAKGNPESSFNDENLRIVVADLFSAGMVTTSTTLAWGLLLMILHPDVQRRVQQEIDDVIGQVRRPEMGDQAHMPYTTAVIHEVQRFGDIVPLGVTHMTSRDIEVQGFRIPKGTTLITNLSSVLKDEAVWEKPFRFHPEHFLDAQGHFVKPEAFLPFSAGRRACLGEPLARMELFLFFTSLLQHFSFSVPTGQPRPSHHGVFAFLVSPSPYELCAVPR

[3] = biological target: Cytochrome P450 4A11 (Homo sapiens, UniProt Q02928); assay: Activity of human recombinant CYP4A11 assessed as enzyme-mediated drug metabolism treated with 25 uM vorapaxar after 120 mins by LC-MS/MS analysis in presence of NADPH; assay type: ADME; conditions: 2 h
Sequence of Cytochrome P450 4A11 (Q02928 whole entry): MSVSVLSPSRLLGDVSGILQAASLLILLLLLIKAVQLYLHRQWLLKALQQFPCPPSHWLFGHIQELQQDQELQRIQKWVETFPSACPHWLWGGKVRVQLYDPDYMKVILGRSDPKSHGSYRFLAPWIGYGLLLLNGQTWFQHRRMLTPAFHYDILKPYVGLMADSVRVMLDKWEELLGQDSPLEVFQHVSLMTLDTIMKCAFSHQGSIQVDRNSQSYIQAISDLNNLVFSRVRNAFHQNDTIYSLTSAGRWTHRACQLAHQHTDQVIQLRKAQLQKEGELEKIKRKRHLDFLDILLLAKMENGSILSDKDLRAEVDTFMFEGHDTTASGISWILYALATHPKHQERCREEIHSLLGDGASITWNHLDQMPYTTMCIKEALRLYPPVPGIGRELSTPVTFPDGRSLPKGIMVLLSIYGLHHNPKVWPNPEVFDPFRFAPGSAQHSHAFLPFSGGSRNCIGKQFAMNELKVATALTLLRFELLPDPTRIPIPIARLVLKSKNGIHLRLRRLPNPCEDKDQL

[4] = Drug metabolism in human liver S9 fraction assessed as compound remaining at 10 uM after 120 mins by LC-MS/MS analysis in presence of NADPH; assay type: ADME, subcellular; conditions: read-out: Compound recovery
[5] = system: Liver microsome; assay: Drug metabolism in human liver microsomes assessed as (3R,3aS,4S,4aR,7R,8aR,9aR)-7-amino-4-((E)-2-(5-(3-fluorophenyl)pyridin-2-yl)vinyl)-3-methyldecahydronaphtho[2,3-c]furan-1(3H)-one formation at 10 to 25 uM after 120 mins by LC-MS/MS analysis in presence of ketoconazole; assay type: ADME; conditions: 2 h
[6] = system: Liver microsome; assay: Drug metabolism in human liver microsomes assessed as (3R,3aS,4S,4aR,7R,8aR,9aR)-7-amino-4-((E)-2-(5-(3-fluorophenyl)pyridin-2-yl)vinyl)-3-methyldecahydronaphtho[2,3-c]furan-1(3H)-one formation at 10 to 25 uM after 120 mins by LC-MS/MS analysis in presence of CYP2B6-specific inhibitory antibody; assay type: ADME; conditions: 2 h
[7] = biological target: CYP2B6 (Homo sapiens, UniProt P20813); assay: Activity of human recombinant CYP2B6 assessed as enzyme-mediated drug metabolism at 10 uM after 120 mins by LC-MS/MS analysis in presence of NADPH; assay type: ADME; conditions: read-out: Compound recovery
[8] = system: Liver microsome; assay: Drug metabolism in human liver microsomes assessed as (3R,3aS,4S,4aR,7R,8aR,9aR)-7-amino-4-((E)-2-(5-(3-fluorophenyl)pyridin-2-yl)vinyl)-3-methyldecahydronaphtho[2,3-c]furan-1(3H)-one formation at 10 to 25 uM after 120 mins by LC-MS/MS analysis in presence of sulfaphenazole; assay type: ADME; conditions: 2 h
[9] = biological target: CYP2C19 (Homo sapiens, UniProt P33261); assay: Activity of human recombinant CYP2C19 assessed as enzyme-mediated drug metabolism at 10 uM after 120 mins by LC-MS/MS analysis in presence of NADPH; assay type: ADME; conditions: read-out: Compound recovery
Sequence of CYP2C19 (P33261 whole entry): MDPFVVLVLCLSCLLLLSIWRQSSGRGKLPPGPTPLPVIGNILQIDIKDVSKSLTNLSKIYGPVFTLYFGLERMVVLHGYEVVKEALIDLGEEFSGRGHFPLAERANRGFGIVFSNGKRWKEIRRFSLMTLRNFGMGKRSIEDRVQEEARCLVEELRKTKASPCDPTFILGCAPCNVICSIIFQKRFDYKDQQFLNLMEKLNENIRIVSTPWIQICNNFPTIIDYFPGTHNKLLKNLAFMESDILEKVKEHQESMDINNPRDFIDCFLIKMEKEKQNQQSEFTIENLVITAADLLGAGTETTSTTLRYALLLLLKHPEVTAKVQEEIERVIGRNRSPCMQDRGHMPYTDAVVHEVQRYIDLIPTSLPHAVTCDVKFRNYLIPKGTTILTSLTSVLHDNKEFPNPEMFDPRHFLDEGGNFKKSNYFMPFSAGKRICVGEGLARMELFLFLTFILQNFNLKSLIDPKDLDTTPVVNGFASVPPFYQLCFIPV

[10] = biological target: T2, Cytochrome P450 1A2 (Homo sapiens, UniProt P05177); assay: Activity of human recombinant CYP1A2 assessed as enzyme-mediated drug metabolism at 10 uM after 120 mins by LC-MS/MS analysis; assay type: ADME; conditions: 2 h
T2 sequence (P05177 whole entry): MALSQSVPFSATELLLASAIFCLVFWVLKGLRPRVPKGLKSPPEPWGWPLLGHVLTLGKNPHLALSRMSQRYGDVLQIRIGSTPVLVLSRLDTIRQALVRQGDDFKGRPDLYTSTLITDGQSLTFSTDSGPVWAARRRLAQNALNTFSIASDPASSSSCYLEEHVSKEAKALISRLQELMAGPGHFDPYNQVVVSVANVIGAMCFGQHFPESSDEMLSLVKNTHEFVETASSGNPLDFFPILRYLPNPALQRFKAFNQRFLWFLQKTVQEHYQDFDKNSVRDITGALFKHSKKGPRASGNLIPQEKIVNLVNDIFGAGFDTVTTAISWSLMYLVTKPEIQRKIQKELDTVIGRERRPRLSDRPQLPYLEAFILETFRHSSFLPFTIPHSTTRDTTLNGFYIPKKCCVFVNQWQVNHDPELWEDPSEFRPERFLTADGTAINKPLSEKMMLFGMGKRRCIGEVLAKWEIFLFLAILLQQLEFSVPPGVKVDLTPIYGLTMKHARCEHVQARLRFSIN

[11] = system: Liver microsome; assay: Drug metabolism in human liver microsomes assessed as (3R,3aS,4S,4aR,7R,8aR,9aR)-7-amino-4-((E)-2-(5-(3-fluorophenyl)pyridin-2-yl)vinyl)-3-methyldecahydronaphtho[2,3-c]furan-1(3H)-one formation per nmol of enzyme at 25 uM after 120 mins by LC-MS/MS analysis; assay type: ADME; conditions: 2 h
[12] = biological target: T3, Cytochrome P450 2B6 (Homo sapiens, UniProt P20813); assay: Activity of human recombinant CYP2B6 assessed as enzyme-mediated 2-hydroxyethyl (1R,3aR,4aR,6R,8aR,9S,9aS)-9-((E)-2-(5-(3-fluorophenyl)pyridin-2-yl)vinyl)-1-methyl-3-oxododecahydronaphtho[2,3-c]furan-6-ylcarbamate formation at 25 uM after 120 mins by LC-MS/MS analysis in presence of NADPH; assay type: ADME; conditions: 2 h
T3 sequence (P20813 whole entry): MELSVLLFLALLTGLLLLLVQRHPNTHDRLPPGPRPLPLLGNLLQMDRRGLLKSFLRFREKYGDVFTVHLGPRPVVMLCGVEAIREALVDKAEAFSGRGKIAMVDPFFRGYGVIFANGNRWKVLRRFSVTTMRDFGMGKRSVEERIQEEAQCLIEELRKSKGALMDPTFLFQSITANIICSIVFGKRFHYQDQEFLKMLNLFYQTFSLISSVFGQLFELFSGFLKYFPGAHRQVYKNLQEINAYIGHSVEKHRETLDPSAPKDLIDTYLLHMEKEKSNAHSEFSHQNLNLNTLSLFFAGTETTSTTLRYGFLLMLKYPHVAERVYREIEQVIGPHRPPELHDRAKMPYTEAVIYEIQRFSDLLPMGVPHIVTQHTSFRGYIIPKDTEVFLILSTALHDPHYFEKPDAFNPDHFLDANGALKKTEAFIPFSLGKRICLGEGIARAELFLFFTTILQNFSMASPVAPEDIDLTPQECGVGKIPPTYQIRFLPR

[13] = biological target: T1, Cytochrome P450 4F2; assay: Activity of human recombinant CYP4F2 assessed as enzyme-mediated 2-hydroxyethyl (1R,3aR,4aR,6R,8aR,9S,9aS)-9-((E)-2-(5-(3-fluorophenyl)pyridin-2-yl)vinyl)-1-methyl-3-oxododecahydronaphtho[2,3-c]furan-6-ylcarbamate formation at 25 uM after 120 mins by LC-MS/MS analysis in presence of NADPH; assay type: ADME; conditions: 2 h

Compound: C[C@H]1OC(=O)[C@@H]2C[C@@H]3C[C@H](NC(=O)OCCO)CC[C@H]3[C@H](/C=C/c3ccc(-c4cccc(F)c4)cn3)[C@H]12
- Drug metabolism [1]: metabolite_detected
- Drug metabolism [2]: metabolite_detected
- Drug metabolism [3]: metabolite_detected

Compound: CCOC(=O)N[C@@H]1CC[C@@H]2[C@@H](C1)C[C@H]1C(=O)O[C@H](C)[C@H]1[C@H]2/C=C/c1ccc(-c2cccc(F)c2)cn1 [VORAPAXAR]
- remaining at 2 h, 10 µM [4]: 95.7%
- Drug metabolism [5]: metabolite_not_detected
- Drug metabolism [6]: metabolite_detected
- remaining at 2 h, 10 µM [7]: 97.7%
- Drug metabolism [8]: metabolite_detected
- remaining at 2 h, 10 µM [9]: 94.1%

Compound: CCOC(=O)N[C@@H]1CC[C@@H]2[C@@H](C1)C[C@H]1C(=O)O[C@H](C)[C@H]1[C@H]2/C=[14CH]/c1ccc(-c2cccc(F)c2)cn1
- Drug metabolism [10]: metabolite_not_detected
- Vmax [11]: 30 pmol/min
- Drug metabolism [12]: metabolite_detected
- Drug metabolism [13]: metabolite_detected
